# According to US8426175B2, “Method for the production of a fermentation product from a pretreated lignocellulosic feedstock” (Iogen Energy Corporation, priority 2007, dated 2013):
# Read-outs that look alike come from different tables or passages of the source.
# Assays:
# [1] = system: bacteria in contaminated yeast slurry; test: Bacterial enumeration on TSA + cycloheximide plates after ClO2 treatment of contaminated yeast slurry; assay type: cell-based
# Procedure: (§2) The yeast was concentrated by centrifugation (4 min, 4000 rpm) and resuspended in the original, contaminated supernatant to 20 g/L, 200 g/L or 300 g/L. Contamination was verified microscopically. The three slurries produced were cooled in an ice-water bath treated with either ClO2 at 0, 10, 50, 250, 500, 750 and 1000 ppm, serially diluted and plated on YM agar (3.0 g/L yeast extract, 3.0 g/L malt extract, 5 g/L peptone, 10 g/L glucose, 20 g/L agar)+chloramphenicol (34 μg/mL) plates for yeast and TSA (15 g/L pancreatic casein digest, 5 g/L enzymatic soy meal digest, 5 g/L NaCl, 15 g/L agar)+cycloheximide (0.05 μg/mL) plates for bacterial enumeration. Plates were incubated overnight at 30° C. and 37° C. for yeast and bacteria, respectively. Plates were counted the next day and bacterial colonies were verified microscopically.
# Saccharomyces yeast = conditions: for impact on the viability of the yeast: 500 ppm or higher
# Procedure: as §2
# [2] = system: contaminated recombinant Saccharomyces cultures; test: Batch fermentation of xylose to ethanol inoculated with chlorine dioxide-treated, recycled yeast slurry; assay type: cell-based
# Procedure: Saccharomyces cells from a frozen glycerol stock were used to inoculate 4 L of Sc Inoculation Medium (pH 6). The inoculum was grown with shaking at 160 rpm for 24 h at 30° C. The cells were harvested by centrifugation (4000 rpm for 5 min) and the entire cell pellet was resuspended in about 50 mL of the supernatant and this was used to inoculate 20 L of Sc Propagation Medium (pH 5.0). A fed-batch fermentation was run for 4 days with mild aeration of 56 slpm and 500 rpm agitation by mechanical stirring. The pH was maintained at 5.0 and the temperature was maintained at 30° C. for the first two days followed by 28° C. for the last two days. A 60 g/L glucose solution was fed to the vessel at a rate of 83.3 mL/h. The culture was sampled three times daily and the samples analyzed for cell growth, xylose and glucose. At the end of the fermentation, the entire broth was harvested and the cells concentrated by centrifugation (4000 rpm for 5 min in multiple 4 L Nalgene bottles). The cell pellets were resuspended to a concentration of 22.5 g cell mass/L. This was used to inoculate 10 L of Sc Fermentation Medium. Batch fermentation was run for 2-3 days with 1 slpm aeration, 250 rpm mechanical agitation. The pH was maintained at 6.0 and the temperature maintained at 28-30° C. The culture was sampled three times daily and the samples analyzed for cell growth, xylose glucose and ethanol.
# (§1) Xylose and glucose concentrations of each sample were measured as follows: 2 mL of the broth were centrifuged at 14,000 rpm for 3 min to remove cells and the supernatant filtered through a 0.2 μm syringe filter. 10× dilutions of the supernatant were prepared in 5 mM sulfuric acid solution. Dilutions were analyzed via HPLC using an Agilent 1100 Series HPLC stem equipped with an 1100 Series Autosampler and Pumping System and Chemstation control software. A Varian MetaCarb 87H column maintained at 50° C. was used for separation. The eluant was a 5 mM aqueous sulfuric acid solution with a flow rate of 0.600 mL/min. Glucose, ethanol, xylose and xylitol were quantified using an Agilent 1100 Series Refractive Index Detector. Acetic acid and lactic acid were measured using an Agilent 1200 Series Variable Wavelength Detector.
# […] The yeast slurry was treated with chlorine dioxide at 50 ppm, 300 ppm and 500 ppm. The yeast slurry was used to re-inoculate fermentors containing 10 L of Sc Fermentation Medium run in batch mode at a starting yeast concentration targeted at 22.5 g/L yeast, as described in Example 2a. The culture was sampled three times daily and the samples analyzed for xylose, lactic acid and ethanol as described in Example 2a.
# [3] = system: bacterially contaminated Candida tropicalis culture; test: Batch fermentation of xylose to xylitol inoculated with chlorine dioxide-treated, recycled yeast slurry; assay type: cell-based; conditions: yeast slurry treated with 100 ppm at room temperature (FIG. 5)
# Procedure: as §1
# C. tropicalis cells from a frozen glycerol stock used to inoculate 2 L of Ct Inoculation Medium. The inoculum was grown with shaking at 160 rpm for 24 h at 30° C. The cells were harvested by centrifugation and the entire cell pellet was used to inoculate 2 L of Ct Xylose Medium. This culture was grown with shaking at 160 rpm for 24 h at 30° C. and the broth was used to inoculate 10 L of Ct Fermentation Medium. […] The culture was sampled three times daily and the samples analyzed for cell growth, xylose and xylitol as described in Example 2a. […]
# Lactobacillus strains = conditions: cited from earlier work
# [4] = 200 g/L yeast slurry treated at 300 ppm (FIG. 3B)
# [5] = 300 g/L yeast slurry treated at 500 ppm (FIG. 3C)
smiles,measurement,setting,value
[O][Cl+][O-] [chlorine dioxide],chlorine dioxide dosage that effectively suppresses bacterial growth,[1]; 20 g/L yeast cell suspension,≥ 250 ppm
same,chlorine dioxide dosage required for effective bacterial decontamination,[1]; 200 g/L yeast suspension,≥ 500 ppm
same,chlorine dioxide dosage required for effective bacterial decontamination,[1]; 300 g/L yeast suspension,≥ 500 ppm
same,impact on yeast viability,"Saccharomyces yeast; 20 g/L yeast cell suspension, 250 ppm or higher",little to no impact
same,impact on the viability of the yeast,Saccharomyces yeast; 200 g/L yeast suspension,little or no impact
same,impact on the viability of the yeast,Saccharomyces yeast; 300 g/L yeast suspension,little or no impact
same,ethanol product produced versus culture from slurry treated with 50 ppm,[2]; [4],significantly more
same,unwanted lactic acid byproduct produced versus culture from slurry treated with 50 ppm,[2]; [4],less
same,ethanol product produced versus culture from slurry treated with 50 ppm,[2]; [5],significantly more
same,unwanted lactic acid byproduct produced versus culture from slurry treated with 50 ppm,[2]; [5],less
same,rate of xylose consumption,"[2]; cells treated with the higher chlorine dioxide dosages (300, 500 ppm) vs 50 ppm",significantly faster
same,xylitol fermentation product produced versus culture inoculated with the untreated slurry,[3],produced more
OO [hydrogen peroxide],reducing the viability of Lactobacillus,Lactobacillus strains; one of the Lactobacillus species tested,effective
O=S(O)O [sulfite],susceptibility of bacterial contaminants (two Lactobacillus strains),Lactobacillus strains; treatment of yeast cells concentrated by filtration,susceptible to sulfite only in the presence of oxygen
